Results as given in PMC7075364, “Synthesis and biological evaluation of small molecule modulators of CDK8/Cyclin C complex with phenylaminoquinoline scaffold” (PeerJ, 2020).
Entries after “also recorded” stand apart in the source; their conditions may differ. Where two headings read alike, the source gives them in different places.

Assays:
CDK8/CycC = target: T1, CDK8/CycC (Homo sapiens, UniProt P49336); assay: In vitro kinase inhibition assay (Reaction Biology HotSpot, 10 dose IC50 singlet); format: biochemical; details: for IC50 / inhibition at 20 µM: CDK8/CycC; for IC50: 10 dose IC50 singlet assay; for inhibition at 20 µM: compound at 20 µM, read-out: % enzyme inhibition ± SD (20 µM)
T1 construct: purchased Reaction Biology Corp. (Kinase HotSpot service)
T1 sequence (P49336 whole entry): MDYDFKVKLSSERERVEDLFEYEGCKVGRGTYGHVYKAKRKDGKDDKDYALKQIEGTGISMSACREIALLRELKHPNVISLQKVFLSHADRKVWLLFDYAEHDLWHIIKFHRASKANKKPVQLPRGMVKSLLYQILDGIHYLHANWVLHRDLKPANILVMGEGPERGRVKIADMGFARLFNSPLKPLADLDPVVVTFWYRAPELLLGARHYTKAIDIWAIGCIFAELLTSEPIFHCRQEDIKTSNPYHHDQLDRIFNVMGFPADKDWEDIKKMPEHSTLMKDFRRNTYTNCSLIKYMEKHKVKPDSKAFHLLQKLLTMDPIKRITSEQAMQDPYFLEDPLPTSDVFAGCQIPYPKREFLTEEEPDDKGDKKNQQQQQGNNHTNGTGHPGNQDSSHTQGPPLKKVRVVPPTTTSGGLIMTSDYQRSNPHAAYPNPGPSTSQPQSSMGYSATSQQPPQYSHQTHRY
T1 sequence (P24863 whole entry partner): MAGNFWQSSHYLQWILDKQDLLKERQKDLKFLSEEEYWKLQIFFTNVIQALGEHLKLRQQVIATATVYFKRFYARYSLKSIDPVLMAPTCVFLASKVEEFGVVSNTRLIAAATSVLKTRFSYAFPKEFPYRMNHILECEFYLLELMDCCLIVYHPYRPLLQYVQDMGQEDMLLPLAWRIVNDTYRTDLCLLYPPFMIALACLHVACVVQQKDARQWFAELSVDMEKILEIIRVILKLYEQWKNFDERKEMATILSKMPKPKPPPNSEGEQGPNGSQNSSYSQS
Description: Reaction Biology Corp. Kinase HotSpotSM service (http://www.reactionbiology.com) was used for the screening of tested compounds. […] Activity of kinases were assessed by the HotSpot assay platform, which contained specific kinase/substrate pairs along with required cofactors ([Abdelazem et al., 2015]; [Abdelazem et al., 2016]; [Al-Sanea et al., 2016a]; [Al-Sanea et al., 2015a]; [Al-Sanea et al., 2015b]; [Al-Sanea, El-Deeb & Lee, 2013]; [Park et al., 2014]).
The newly prepared phenylaminoquinolines 5a–i were biologically evaluated as potential CDK8/CycC complex inhibitors.

[1] = tested on: acute myeloid leukemia (AML); design: method as in earlier work; details: ref Cee et al., 2009, Crown, 2017, Pelish et al., 2015, Rzymski et al.; cited from earlier work
CDK8 = details: cited from earlier work

Compound | IC50 (CDK8/CycC) | inhibition at 20 µM (CDK8/CycC) | IC50 (CDK8/CycC; read-out: IC50) | also measured
CCOC(=O)c1cnc2ccc(OC)cc2c1Nc1cccc(S(N)(=O)=O)c1 [5b, Ethyl 6-methoxy-4-((3-sulfamoylphenyl)amino)quinoline-3-carboxylate] | single digit micromolar potency | 63.4 ± 2.31% | 5340 nM | 
CCOC(=O)c1cnc2cc(Cl)c(F)cc2c1Nc1cccc(S(C)(=O)=O)c1 [5i, Ethyl 7-chloro-6-fluoro-4-((3-(methylsulfonyl)phenyl)amino)quinoline-3-carboxylate] | failed to inhibit; also recorded: No inhibition | 32 ± 0.82% |  | 
CCOC(=O)c1cnc2ccc(OC)cc2c1Nc1cccc(NS(C)(=O)=O)c1 [5e, Ethyl 6-methoxy-4-((3-(methylsulfonamido)phenyl)amino)quinoline-3-carboxylate] |  | 85.9 ± 0.94% | 1420 nM | 
CN(C)[C@H]1C[C@@]23CC[C@@]4(O2)C(=CC[C@]2(C)[C@@H](c5ccc6ccncc6c5)CC[C@H]24)C=C3[C@@H](O)[C@@H]1O [cortistatin A] |  |  |  | anticancer activity in animal models of AML [1]: exhibited anticancer activity; IC50 (CDK8; ATP-competitive, ref Cee et al., 2009, Crown, 2017, Pelish et al., 2015, Rzymski et al., read-out: CDK8 inhibitory activity IC50): 15 nM
CCOC(=O)c1cnc2cc(Cl)c(F)cc2c1Nc1cccc(NS(C)(=O)=O)c1 [5f, Ethyl 7-chloro-6-fluoro-4-((3-(methylsulfonamido)phenyl)amino)quinoline-3-carboxylate] | failed to inhibit; also recorded: No inhibition | 27.2 ± 8.46% |  | 
CCOC(=O)c1cnc2ccc(Br)cc2c1Nc1cccc(S(=O)(=O)NC)c1 [5d, Ethyl 6-Bromo-4-((3-(N-methylsulfamoyl)phenyl)amino)quinoline-3-carboxylate] |  | 88.6 ± 0.97% | 639 nM | melting point: 212.9 to 214.3 °C
CCOC(=O)c1cnc2ccc(Br)cc2c1Nc1cccc(S(C)(=O)=O)c1 [5g, Ethyl 6-Bromo-4-(3-methanesulfonylphenylamino)-quinoline-3-carboxylate] | no CDK8/CycC complex inhibitory activity; also recorded: No inhibition | 22.4 ± 1.02% |  | 
CCOC(=O)c1cnc2ccc(Br)cc2c1Nc1cccc(S(N)(=O)=O)c1 [5a, Ethyl 6-Bromo-4-(3-sulfamoyl-phenylamino)-quinoline-3-carboxylate] | single digit micromolar potency | 83.9 ± 1.83% | 3980 nM | melting point: 235.6 to 237.2 °C; fold decrease in potency relative to 5d (CDK8/CycC; CDK8/CycC IC50 of 5a compared with 5d): 6 fold
CN1CCN(C(=O)c2ccc3cc(CCNc4ncnc5ccc(C#N)cc45)ccc3c2)CC1 [Senexin B] |  |  |  | IC50 (CDK8; ref McDermott et al., 2017, Rzymski et al., 2015, read-out: CDK8 modulation IC50): 24 nM

More lines, main results first:

IC50 (CDK8/CycC) | inhibition at 20 µM (CDK8/CycC) | IC50 (CDK8/CycC; read-out: IC50) | Compound | also measured
No inhibition | 18.7 ± 0.48% |  | CCOC(=O)c1cnc2ccc(OC)cc2c1Nc1cccc(S(C)(=O)=O)c1 [5h, Ethyl 6-methoxy-4-((3-(methylsulfonyl)phenyl)amino)quinoline-3-carboxylate] | 
failed to inhibit | 37.9 ± 1.31% |  | CCOC(=O)c1cnc2cc(Cl)c(F)cc2c1Nc1cccc(S(N)(=O)=O)c1 [5c, Ethyl 7-chloro-6-fluoro-4-((3-sulfamoylphenyl)amino)quinoline-3-carboxylate] | 
